Measured values as given in ChEMBL document CHEMBL2311530, “The development of potential new fluorine-18 labelled radiotracers for imaging the GABA(A) receptor” (Bioorg Med Chem Lett, 2013).
pKi: −log10 of the molar value.

Tests used:
[1] = Displacement of […]FMZ from Wistar rat cerebellum GABAA receptor by competitive radioligand assay; assay type: tissue-based
[2] = Lipophilicity, log D of the compound in n-octanol at pH 7.4 by shake flask method; assay type: physicochemical

## O=C(NCCCF)c1ncn2c1[C@@H]1CCCN1C(=O)c1c(Br)cccc1-2
[1]
  pKi: < 5.00

## CN1Cc2c(C(=O)OC(C)(C)C)ncn2-c2ccnc(F)c2C1=O
[1]
  pKi: 8.41

## CCOC(=O)c1ncn2c1CN(CCF)C(=O)c1cc(F)ccc1-2
[2]
  logD: 1.54
[1]
  pKi: 7.87

## CCOC(=O)c1ncn2c1CN(Cc1ccccc1)C(=O)c1cc(F)ccc1-2
[2]
  logD: 1.44
[1]
  pKi: 8.54

## CN1Cc2c(C(=O)OC(C)(C)C)ncn2-c2ccc(F)cc2C1=O
[1]
  pKi: 8.72

## O=C(OCCCF)c1ncn2c1[C@@H]1CCCN1C(=O)c1c(Br)cccc1-2
[1]
  pKi: 8.49

## CC(C)(C)OC(=O)c1ncn2c1[C@@H]1CCCN1C(=O)c1c(Br)cccc1-2 [BRETAZENIL]
[1]
  pKi: 9.52

## CCOC(=O)c1ncn2c1CN(CC)C(=O)c1cc(F)ccc1-2
[2]
  logD: 1.65
[1]
  pKi: 7.97

## CCOC(=O)c1ncn2c1CN(C)C(=O)c1c(F)cccc1-2
[2]
  logD: 1.25
[1]
  pKi: 8.26

## CN1Cc2c(C(=O)OC(C)(C)C)ncn2-c2nccc(F)c2C1=O
[1]
  pKi: 8.89

## O=C(NCCF)c1ncn2c1[C@@H]1CCCN1C(=O)c1c(Br)cccc1-2
[1]
  pKi: < 5.00

## CCOC(=O)c1ncn2c1CN(C)C(=O)c1cc(OCCF)ccc1-2
[2]
  logD: 1.62
[1]
  pKi: 8.64

## CN1Cc2c(C(=O)OCCCF)ncn2-c2ccc(F)cc2C1=O
[2]
  logD: 0.68
[1]
  pKi: < 5.00

## CCOC(=O)c1ncn2c1CN(C)C(=O)c1cc(F)ccc1-2 [FLUMAZENIL]
[2]
  logD: 1.58
[1]
  pKi: 8.89

## CCOC(=O)c1ncn2c1[C@@H]1CCCN1C(=O)c1cc(F)ccc1-2
[2]
  logD: 1.85
[1]
  pKi: 8.64

## CN1Cc2c(C(=O)NCCCF)ncn2-c2ccc(F)cc2C1=O
[1]
  pKi: < 5.00

## CCOC(=O)c1ncn2c1CN(C)C(=O)c1nc(F)ccc1-2
[1]
  pKi: 7.85

## CC(C)OC(=O)c1ncn2c1CN(C)C(=O)c1c(F)cccc1-2
[1]
  pKi: 9.38

## CN1Cc2c(C(=O)OC(C)(C)C)ncn2-c2cccc(F)c2C1=O
[2]
  logD: 0.69
[1]
  pKi: 9.12

## CC(C)(C)OC(=O)c1ncn2c1CN(CCF)C(=O)c1cc(F)ccc1-2
[1]
  pKi: 8.05

## CN1Cc2c(C(=O)NCCF)ncn2-c2ccc(F)cc2C1=O
[1]
  pKi: < 5.00

## CN1Cc2c(C(=O)OC(C)(C)C)ncn2-c2ccc(OCCF)cc2C1=O
[2]
  logD: 1.17
[1]
  pKi: 9.28

## O=C(OCCF)c1ncn2c1[C@@H]1CCCN1C(=O)c1c(Br)cccc1-2
[1]
  pKi: 8.03

## CN1Cc2c(C(=O)OCCF)ncn2-c2ccc(F)cc2C1=O
[2]
  logD: 1.12
[1]
  pKi: 8.40

## CN1Cc2c(C(=O)OC(C)(C)C)ncn2-c2cccc(OCCF)c2C1=O
[1]
  pKi: 8.96
